Reference: patent US10799512B2, “Estrogen combination for treatment of multiple sclerosis” (The Regents of the University of California, priority 2014, dated 2020)

Columns and labels:
Format in all cases: in vivo, human
[1] = Estriol blood/serum levels in treated patients
Method: (§1) Patients also underwent mammograms before and after the study.
Baseline characteristics were similar in both patient groups.
FIG. 6 depicts estriol blood levels induced by treatment with estriol 8 mg per day every day plus norethindrone 0.7 mg a day for 14 days every 3 months.

[2] = system: female patients with active relapsing multiple sclerosis; experiment: Safety and tolerability (gynecological and breast exams, adverse events); settings: patients received Copaxone with estriol
Method: 158 patients were randomized to Copaxone® (glatiramer acetate) injections (20 mg/day) and oral estriol (8 mg/day) or to Copaxone® injections and placebo for a 24-month treatment duration. Gynecologists examined the patients before, during, and after the study. Each patient was examined at three- to six-month intervals during the trial. Patients also underwent mammograms before and after the study. In addition, at baseline, three months, six months, 12 months, 18 months, and 24 months, the investigators measured participants' estriol levels, and assessed for MS relapses and MS-related disabilities.
Baseline characteristics were similar in both patient groups. Participants' mean age at entry was approximately 38, and their mean EDSS score at entry was 2.2. […] To ensure breast and uterus safety, every three months the patients took norethindrone 0.7 mg once a day for 14 days.

[3] = system: female patients with active relapsing multiple sclerosis; experiment: Brain MRI, gadolinium enhancing lesions; settings: at month 12; p=0.14
From the text: as §1
Brain MRI is used extensively in MS as a surrogate marker for clinical effects. Brain white matter gadolinium enhancing lesions are a biomarker for relapses.

[4] = system: female patients with active relapsing multiple sclerosis; experiment: Timed 25-foot walk test; settings: between-group difference p=0.02; higher time = worse
From the text: as §1
Another clinical disability measure with treatment effects was the timed 25-foot walk test. This test measures how many seconds it takes to walk 25 feet, with higher scores indicating worse disability. […] This beneficial effect of estriol treatment on 25-foot walking times is consistent with the beneficial effect of estriol treatment on EDSS scores since the latter is weighted toward being an indicator of ambulation.

[5] = system: female patients with active relapsing multiple sclerosis; experiment: Expanded Disability Status Scale (EDSS); settings: over 24 months
From the text: as §1
The Expanded Disability Status Scale (EDSS) is a standard composite disability score used in MS trials. Higher scores indicate worse disability. This composite covers a variety of disabilities (including ambulation, vision, cognition, coordination, etc.), but the scoring is not linear and the composite score is understood to be principally an indicator of the level of disability in ambulation.

estriol blood levels induced ([1]; estriol 8 mg per day every day plus norethindrone 0.7 mg a day for 14 days every 3 months, FIG. 6) | estriol levels in serum ([1]; estriol-treated group, oral estriol 8 mg/day) | Molecule | Breast - Fibrocystic breast disease on clinical exam [2] [subjects] | Uterine fibroids on ultrasound [2] [subjects] | reduction in number of subjects with brain MRI scans positive for enhancing lesions [3] [%] | change in 25-foot walk time [4] | EDSS scores, slope ([5]; FIG. 4, p=0.06 (estriol), p=0.90 (placebo)) | change in EDSS scores ([5]; decrease = improvement)
about 10 ng/ml | mid-pregnancy range | C[C@]12CC[C@@H]3c4ccc(O)cc4CC[C@H]3[C@@H]1C[C@@H](O)[C@@H]2O [estriol] | 5 | 8 |  |  |  | 
 |  | glatiramer acetate [Copaxone® plus placebo] |  |  | 22 | significantly increased | −0.01 | no change
